Test results reported in US5804549A, “Compositions with activity against helicobacter” (AMBI Inc., priority 1996, dated 1998).

Tested on: H. pylori strain ATCC 43504
Assay: bactericidal activity: survival of bacteria by viable counts (CFU/ml)
Format: cell-based, Helicobacter pylori
Protocol: All tests of bactericidal activity in this example were conducted for 30 minutes at 37° C. The parameter measured was survival of bacteria exposed to GML and/or nisin, as determined by viable counts (colony forming units per ml [CFU/ml]) determined by standard dilution and plating techniques. Media, growth and test conditions were as follows: All cultures of Helicobacter were incubated under microaerobic conditions in GasPak. H. pylori was cultured for 2 to 4 days on Trypticase Soy agar+5% defibrinated sheep blood and then inoculated into NYCIII broth and grown overnight with gentle shaking. [NYCIII broth contains, per liter: 1 g soluble starch (Difco), 15 g proteose peptone #3 (Difco), 5 g NaCl, 4 gK2 HPO4, 1 g KH2 PO4, 5 g glucose, 25 ml fresh yeast extract (Gibco), 120 ml gamma-globulin-free horse serum (Sigma)]. Suspensions for testing the activity of GML and nisin were in 10% sucrose. Viable counts were determined after 3-5 days' growth on Trypticase Soy agar-5% sheep blood.
A suspension of bacteria was divided and exposed to different concentrations of the agents, singly or combined. Survival of bacteria is expressed relative to the unincubated (zero time) control suspension. Nisin alone, at concentrations between 30 and 300 μg/ml, had little or no effect on the viability of H. pylori (survival ≥10%). At concentrations of 1 and 3 μg/ml GML, in the absence of nisin, there was also little or no reduction in the viability of the inoculum (survival≥10%). […] When the bacteria were exposed to 10 μg/ml of GML alone, again more than 10% of the bacteria survived.

Row | Compound | Survival of bacteria relative to the unincubated (zero time) control suspension (10 μg/ml of GML alone, 30 minutes at 37° C.) | effect on the viability of H. pylori (GML 10 μg/ml administered alone) | Survival of bacteria relative to the unincubated (zero time) control suspension (GML 1 and 3 μg/ml, in the absence of nisin, 30 minutes at 37° C.) [%] | effect on viability of the bacterial suspensions (GML alone, 30 or 100 μg/ml, 30 minutes at 37° C.) | effect on the viability of H. pylori (nisin 30-100 μg/ml administered alone) | Survival of bacteria relative to the unincubated (zero time) control suspension (nisin alone, 30 to 300 μg/ml, 30 minutes at 37° C., 10% sucrose, no chelator) [%]
1 | CCCCCCCCCCCC(=O)OCC(O)CO (stereo not drawn) [GML, Glycerol monolaurate] | more than 10% | little effect on the viability | ≥ 10 | sterilized the bacterial suspensions |  | 
2 | nisin |  |  |  |  | little effect on the viability | ≥ 10
